In patent US20030134842A1, “METHODS FOR THE TREATMENT OR PREVENTION OF INFLAMMATORY DISEASES CHARACTERIZED BY ABNORMAL CELL PROLIFERATION” (priority 1997, published 2003):
Like-named read-outs stand apart in the source and are kept apart here.

Legend:
Format in all cases: cell-based
[1] = molecular target: T1, Ca2+-activated potassium channel (Gardos channel) of erythrocytes (Homo sapiens, UniProt O15554); assay: Gardos channel assay
T1 construct: endogenous in cells; host or cells: erythrocytes

[2] = tested on: NIH 3T3 mouse fibroblast cells; assay: Mitogenic assay (mitogen-induced cell proliferation); settings: for IC50: mitogen-induced cell proliferation
[3] = tested on: MCF7; assay: SRB antiproliferative assay MCF7; settings: Homo sapiens
Excerpt: (§1) The cells were passaged using Trypsin (Gibco).

[4] = tested on: HT29; assay: SRB antiproliferative assay HT29; settings: Homo sapiens
Excerpt: as §1

[5] = tested on: MMRU; assay: SRB antiproliferative assay MMRU; settings: Homo sapiens
Excerpt: as §1

[6] = tested on: A549; assay: SRB antiproliferative assay A549; settings: Homo sapiens
Excerpt: as §1

[7] = tested on: HTB174; assay: SRB antiproliferative assay HTB174; settings: HTB174 (Lung), 5% FCS/5 day incubation; read-out: Test Compound IC50
Excerpt: as §1

[8] = tested on: HEPG2; assay: SRB antiproliferative assay HEPG2; settings: Homo sapiens
Excerpt: as §1

[9] = tested on: U118MG; assay: SRB antiproliferative assay U118MG; settings: Homo sapiens, U-118-MG; U118MG, 5% FCS/3 days; read-out: Test Compound IC50 Value in Cell Lines
Excerpt: as §1

[10] = Mus musculus, NIH3T3, NIH 3T3 mouse fibroblast cells
[11] = HT-29, HT29, 5% FCS/2 days, read-out: Test Compound IC50 Value in Cell Lines
[12] = MMRU, 5% FCS/2 days, read-out: Test Compound IC50 Value in Cell Lines
[13] = A549, A549, 5% FCS/2 days, read-out: Test Compound IC50 Value in Cell Lines
[14] = MCF7 (Breast), 5% FCS/5 day incubation, read-out: Test Compound IC50
[15] = HT-29, HT29 (Colon), 5% FCS/5 day incubation, read-out: Test Compound IC50
[16] = MMRU (Melanoma), 5% FCS/5 day incubation, read-out: Test Compound IC50
[17] = A549, A549 (Lung), 5% FCS/5 day incubation, read-out: Test Compound IC50
[18] = HEPG2 (Hepatocel), 5% FCS/5 day incubation, read-out: Test Compound IC50
[19] = MCF7, 5% FCS/3 days, read-out: Test Compound IC50 Value in Cell Lines
[20] = HT-29, HT29, 5% FCS/3 days, read-out: Test Compound IC50 Value in Cell Lines
[21] = MMRU, 5% FCS/3 days, read-out: Test Compound IC50 Value in Cell Lines
[22] = A549, A549, 5% FCS/3 days, read-out: Test Compound IC50 Value in Cell Lines
[23] = HEPG2, 5% FCS/3 days, read-out: Test Compound IC50 Value in Cell Lines

T1 sequence (O15554 whole entry): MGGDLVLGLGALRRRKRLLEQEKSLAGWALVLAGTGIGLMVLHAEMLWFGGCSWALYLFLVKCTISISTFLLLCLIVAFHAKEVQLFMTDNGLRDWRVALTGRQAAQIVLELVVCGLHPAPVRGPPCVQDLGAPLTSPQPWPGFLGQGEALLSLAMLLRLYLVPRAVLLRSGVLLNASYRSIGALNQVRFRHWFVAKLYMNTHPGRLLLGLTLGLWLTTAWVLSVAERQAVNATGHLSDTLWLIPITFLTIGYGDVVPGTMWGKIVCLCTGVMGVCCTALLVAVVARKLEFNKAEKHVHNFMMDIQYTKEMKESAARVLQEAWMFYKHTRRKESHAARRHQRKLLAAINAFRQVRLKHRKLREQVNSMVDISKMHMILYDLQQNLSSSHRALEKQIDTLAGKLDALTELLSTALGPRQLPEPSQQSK

| SMILES | IC50 [1] | inhibition at 10 µM ([1]; 10 μM compound) | IC50 [3, 14] | IC50 [4, 15] | IC50 [6, 17] | IC50 [8, 18] | IC50 [2, 10] | IC50 [7] | IC50 [5, 16] | other results |
| --- | --- | --- | --- | --- | --- | --- | --- | --- | --- | --- |
| c1ccc(C2c3ccccc3CNc3ccccc32)cc1 (centres unmarked) [Compound 1] | 0.775 µM | 75.2% |  |  |  |  |  |  |  |  |
| CN1Cc2ccccc2C(c2ccccc2)c2ccccc21 (centres unmarked) [Compound 2] | 1.3 µM | 99% |  |  |  |  | 5.2 µM |  |  |  |
| Clc1ccccc1C1c2ccccc2CNc2ccccc21 (centres unmarked) [Compound 3] | 0.886 µM | 97.4% |  |  |  |  | 2.4 µM |  |  |  |
| CN1Cc2ccccc2C(c2ccccc2Cl)c2ccccc21 (centres unmarked) [Compound 4] | 0.384 µM | 98.1% |  |  |  |  | 1.5 µM |  |  | IC50 ([3]; MCF7, 2% FCS/3 days, read-out: Test Compound IC50 Value in Cell Lines): 1.7 µM; IC50 ([4]; HT-29, HT29, 2% FCS/3 days, read-out: Test Compound IC50 Value in Cell Lines): 9.7 µM; IC50 ([5]; MMRU, 2% FCS/3 days, read-out: Test Compound IC50 Value in Cell Lines): 4.6 µM; IC50 ([6]; A549, A549, 2% FCS/3 days, read-out: Test Compound IC50 Value in Cell Lines): 11.4 µM |
| c1ccc(CN2Cc3ccccc3C(c3ccccc3)c3ccccc32)cc1 (centres unmarked) [Compound 5] | > 10 µM | 14.4% |  |  |  |  |  |  |  | IC50 [4, 11]: 1 µM; IC50 [5, 12]: > 10 µM; IC50 [6, 13]: 1.4 µM |
| CN1Cc2ccccc2C(c2ccccc2)c2cc(Br)ccc21 (centres unmarked) [Compound 7] | > 10 µM | 35.8% |  |  |  |  | 1.6 µM |  |  | IC50 [4, 11]: > 10 µM; IC50 [5, 12]: > 10 µM; IC50 [6, 13]: > 10 µM |
| Clc1ccccc1C1c2ccccc2CN(Cc2ccccc2)c2ccccc21 (centres unmarked) [Compound 8] |  | 0% |  |  |  |  | 2.2 µM |  |  |  |
| CCOC(=O)C(=O)N1Cc2ccccc2C(c2ccccc2)c2ccccc21 (centres unmarked) [Compound 10] | 1.53 to 1.94 µM | 63% |  |  |  |  |  |  |  |  |
| O=C(O)C(=O)N1Cc2ccccc2C(c2ccccc2)c2ccccc21 (centres unmarked) [Compound 11] | > 10 µM | 9.5% |  |  |  |  |  |  |  |  |
| COc1ccc2c(c1)CNc1ccccc1C2(c1ccccc1)c1ccc(F)cc1 (centres unmarked) [Compound 12] | > 10 µM | 54.8% |  |  |  |  |  |  |  |  |
| Clc1ccc2c(c1)C(c1ccccc1)c1cc3ccccc3cc1CN2 (centres unmarked) [Compound 15] | > 10 µM | 9.5% |  |  |  |  |  |  |  |  |
| CN1Cc2ccccc2C(c2ccccc2Cl)c2ccccc21 (centres unmarked) [Compound 29] |  |  |  |  |  |  |  |  |  | IC50 [4, 11]: > 10 µM; IC50 [5, 12]: > 10 µM; IC50 [6, 13]: > 10 µM; Gardos Channel Assay Inhibition ([1]; 10 μM compound, 10 µM): 95.1%; Mitogenic Assay Inhibition ([2]; 10 µM compound, NIH 3T3 mouse fibroblast cells): 99.0%; IC50 ([2]; NIH 3T3 mouse fibroblast cells): 0.8 µM |

More lines, main results first:

| IC50 [1] | inhibition at 10 µM ([1]; 10 μM compound) | IC50 [3, 14] | IC50 [4, 15] | IC50 [6, 17] | IC50 [8, 18] | SMILES | IC50 [2, 10] | IC50 [7] | IC50 [5, 16] | other results |
| --- | --- | --- | --- | --- | --- | --- | --- | --- | --- | --- |
| 0.236 µM | 97.5% |  |  |  |  | COC(=O)N1Cc2ccccc2C(c2ccccc2)c2ccccc21 (centres unmarked) [Compound 6] |  |  |  | IC50 [4, 11]: > 10 µM; IC50 [5, 12]: 10 µM; IC50 [6, 13]: > 10 µM |
|  | 0% | 2.7 µM | 1.5 µM | 3.1 µM | 1.8 µM | O=C(c1ccc(Cl)cc1)N1Cc2ccccc2C(c2ccccc2)c2ccccc21 (centres unmarked) [Compound 13] | 1.7 µM | 1.4 µM | 1.5 µM |  |
| > 10 µM | 0.45% | 4.2 µM | 2.6 µM | > 5 µM | 3.4 µM | O=C(c1ccccc1)N1Cc2ccccc2C(c2ccccc2)c2ccccc21 (centres unmarked) [Compound 16] | 1.7 µM | 2.6 µM | 2.7 µM |  |
| > 10 µM | 20.6% | 4.5 µM | 1.7 µM | > 5 µM | 2.6 µM | COc1cccc(C(=O)N2Cc3ccccc3C(c3ccccc3)c3ccccc32)c1 (centres unmarked) [Compound 17] | 1.6 µM | 3.6 µM | 2.5 µM |  |
| 0.502 to 0.692 µM | 81.5% |  |  |  |  | COc1cccc2c1C(c1ccccc1Cl)c1cc(Cl)ccc1NC2 (centres unmarked) [Compound 18] | 2.6 µM |  |  |  |
| > 10 µM | 52% |  |  |  |  | COc1ccc2c(c1)CNc1ccc(Cl)cc1C2c1ccccc1Cl (centres unmarked) [Compound 19] | 1.6 µM |  |  |  |
| > 10 µM | 2.1% | 3.5 µM | 1.8 µM | 4.2 µM | 1.9 µM | COc1ccc(C(=O)N2Cc3ccccc3C(c3ccccc3)c3ccccc32)cc1 (centres unmarked) [Compound 21] | 2.7 µM | 1.9 µM | 1.5 µM |  |
| > 10 µM | 14.9% | 1.8 µM | 0.7 µM | 1.9 µM | 1.4 µM | Cc1ccc(C(=O)N2Cc3ccccc3C(c3ccccc3)c3ccccc32)cc1 (centres unmarked) [Compound 22] | 3.6 µM | 1.4 µM | 0.9 µM |  |
| > 10 µM | 18.2% | 3.1 µM | 2.1 µM | 3.4 µM | 2.3 µM | COc1ccc2c(c1)CN(C(=O)c1ccc(Cl)cc1)c1ccc(Cl)cc1C2c1ccccc1Cl (centres unmarked) [Compound 23] |  | 1.8 µM | 2.2 µM |  |
| > 10 µM | 32 to 55% |  |  |  |  | COc1cccc2c1C(c1ccccc1Cl)c1cc(Cl)ccc1N(C(=O)c1ccc(Cl)cc1)C2 (centres unmarked) [Compound 24] |  |  |  |  |
| > 10 µM | 8.5% |  |  |  |  | O=C(c1ccc2ccccc2c1)N1Cc2ccccc2C(c2ccccc2)c2ccccc21 (centres unmarked) [Compound 25] |  |  |  |  |
|  | 0% |  |  |  |  | O=C(Nc1ccccc1)N1Cc2ccccc2C(c2ccccc2Cl)c2ccccc21 (centres unmarked) [Compound 32] | 1.1 µM |  |  | IC50 [9]: 6.8 µM; IC50 [3, 19]: 5.4 µM; IC50 [4, 20]: 6.3 µM; IC50 [5, 21]: 4.9 µM; IC50 [6, 22]: 6.9 µM; IC50 [8, 23]: 6.2 µM |
| > 10 µM | 67.5% | 2.1 µM | 1.2 µM | 3.1 µM | 1.4 µM | CNc1ccc(C(=O)N2Cc3ccccc3C(c3ccccc3Cl)c3ccccc32)cc1 (centres unmarked) [Compound 33] | 2.4 µM | 1.4 µM | 1.3 µM | IC50 [9]: 6.8 µM; IC50 [3, 19]: 5.4 µM; IC50 [4, 20]: 6.3 µM; IC50 [5, 21]: 4.9 µM; IC50 [6, 22]: 6.9 µM; IC50 [8, 23]: 6.2 µM |
| > 10 µM | 12% | 2 µM | 1.6 µM | > 5 µM | 1.5 µM | Nc1ccc(C(=O)N2Cc3ccccc3C(c3ccccc3Cl)c3ccccc32)cc1 (centres unmarked) [Compound 34] | 4 µM | 0.9 µM | 1.2 µM | IC50 [4, 11]: 6.8 µM; IC50 [5, 12]: > 10 µM; IC50 [6, 13]: > 10 µM |
| 0.071 to 0.099 µM | 98.3% | 2.4 µM | 4.8 µM | > 5 µM | 4.5 µM | O=C(Nc1ccc([N+](=O)[O-])cc1)N1Cc2ccccc2C(c2ccccc2Cl)c2ccccc21 (centres unmarked) [Compound 35] |  | 4 µM | 3.1 µM | IC50 [4, 11]: 10 µM; IC50 [5, 12]: > 10 µM; IC50 [6, 13]: > 10 µM |
